Assay results from ChEMBL document CHEMBL5576085, “Heterocyclic compounds as xanthine oxidase inhibitors for the management of hyperuricemia: synthetic strategies, structure-activity relationship and molecular docking studies (2018-2024)” (RSC Med Chem, 2024).

What was measured:
[1] = target: T1, Xanthine dehydrogenase/oxidase (Homo sapiens, UniProt P47989); assay: Inhibition of Xanthine oxidase (unknown origin)
[2] = target: T2, Xanthine dehydrogenase/oxidase (Bos taurus, UniProt P80457); assay: Inhibition of bovine xanthine oxidase using xanthine as substrate by measuring uric acid formation measured 30 secs interval for 2 mins by spectrophotometric analysis
T2 sequence (P80457 whole entry): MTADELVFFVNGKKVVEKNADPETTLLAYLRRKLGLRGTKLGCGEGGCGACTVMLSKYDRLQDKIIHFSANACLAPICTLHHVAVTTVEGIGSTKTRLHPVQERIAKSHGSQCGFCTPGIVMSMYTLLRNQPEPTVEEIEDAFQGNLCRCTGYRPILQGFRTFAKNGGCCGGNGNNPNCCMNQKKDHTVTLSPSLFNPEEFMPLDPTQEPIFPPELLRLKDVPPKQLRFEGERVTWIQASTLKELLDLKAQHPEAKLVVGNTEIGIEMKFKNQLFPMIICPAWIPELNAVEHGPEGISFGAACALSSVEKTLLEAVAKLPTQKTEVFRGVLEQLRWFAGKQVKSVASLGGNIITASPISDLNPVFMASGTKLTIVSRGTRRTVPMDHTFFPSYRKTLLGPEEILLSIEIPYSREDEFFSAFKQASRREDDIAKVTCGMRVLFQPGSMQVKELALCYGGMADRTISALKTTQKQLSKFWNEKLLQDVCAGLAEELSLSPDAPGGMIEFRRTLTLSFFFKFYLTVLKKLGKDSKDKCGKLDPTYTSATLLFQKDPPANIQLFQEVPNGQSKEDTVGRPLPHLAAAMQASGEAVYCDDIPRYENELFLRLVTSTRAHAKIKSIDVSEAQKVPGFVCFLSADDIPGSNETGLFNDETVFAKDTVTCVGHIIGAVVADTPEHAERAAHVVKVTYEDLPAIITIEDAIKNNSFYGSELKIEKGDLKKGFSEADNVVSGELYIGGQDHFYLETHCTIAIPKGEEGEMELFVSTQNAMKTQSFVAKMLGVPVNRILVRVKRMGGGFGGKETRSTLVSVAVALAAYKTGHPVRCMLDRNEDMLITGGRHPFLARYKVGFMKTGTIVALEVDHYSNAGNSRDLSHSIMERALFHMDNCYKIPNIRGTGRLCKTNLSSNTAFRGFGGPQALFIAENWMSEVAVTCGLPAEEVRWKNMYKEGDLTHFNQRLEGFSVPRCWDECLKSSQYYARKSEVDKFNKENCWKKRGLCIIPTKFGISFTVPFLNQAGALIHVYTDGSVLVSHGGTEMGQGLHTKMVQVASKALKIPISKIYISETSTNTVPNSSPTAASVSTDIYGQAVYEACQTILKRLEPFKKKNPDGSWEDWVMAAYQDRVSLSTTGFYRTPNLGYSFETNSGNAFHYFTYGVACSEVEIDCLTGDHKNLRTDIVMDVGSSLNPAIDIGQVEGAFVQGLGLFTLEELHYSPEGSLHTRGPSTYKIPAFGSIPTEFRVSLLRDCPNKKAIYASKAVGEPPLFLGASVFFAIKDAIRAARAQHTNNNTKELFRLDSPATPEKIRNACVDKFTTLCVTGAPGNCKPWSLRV

[3] = target: T1, Xanthine dehydrogenase/oxidase; assay: Inhibition of human Xanthine oxidase
[4] = target: T2, Xanthine dehydrogenase/oxidase; assay: Inhibition of bovine serum Xanthine oxidase; type: cell-free
[5] = target: T1, Xanthine dehydrogenase/oxidase; assay: Inhibition of Xanthine oxidase (unknown origin) using xanthine as substrate preincubated for 30 mins followed by substrate addition by spectrophotometric analysis
[6] = target: T2, Xanthine dehydrogenase/oxidase; assay: Inhibition of bovine milk xanthine oxidase using xanthine as substrate preincubated for 30 mins followed by substrate addition by spectrophotometric analysis

T1 sequence (P47989 whole entry): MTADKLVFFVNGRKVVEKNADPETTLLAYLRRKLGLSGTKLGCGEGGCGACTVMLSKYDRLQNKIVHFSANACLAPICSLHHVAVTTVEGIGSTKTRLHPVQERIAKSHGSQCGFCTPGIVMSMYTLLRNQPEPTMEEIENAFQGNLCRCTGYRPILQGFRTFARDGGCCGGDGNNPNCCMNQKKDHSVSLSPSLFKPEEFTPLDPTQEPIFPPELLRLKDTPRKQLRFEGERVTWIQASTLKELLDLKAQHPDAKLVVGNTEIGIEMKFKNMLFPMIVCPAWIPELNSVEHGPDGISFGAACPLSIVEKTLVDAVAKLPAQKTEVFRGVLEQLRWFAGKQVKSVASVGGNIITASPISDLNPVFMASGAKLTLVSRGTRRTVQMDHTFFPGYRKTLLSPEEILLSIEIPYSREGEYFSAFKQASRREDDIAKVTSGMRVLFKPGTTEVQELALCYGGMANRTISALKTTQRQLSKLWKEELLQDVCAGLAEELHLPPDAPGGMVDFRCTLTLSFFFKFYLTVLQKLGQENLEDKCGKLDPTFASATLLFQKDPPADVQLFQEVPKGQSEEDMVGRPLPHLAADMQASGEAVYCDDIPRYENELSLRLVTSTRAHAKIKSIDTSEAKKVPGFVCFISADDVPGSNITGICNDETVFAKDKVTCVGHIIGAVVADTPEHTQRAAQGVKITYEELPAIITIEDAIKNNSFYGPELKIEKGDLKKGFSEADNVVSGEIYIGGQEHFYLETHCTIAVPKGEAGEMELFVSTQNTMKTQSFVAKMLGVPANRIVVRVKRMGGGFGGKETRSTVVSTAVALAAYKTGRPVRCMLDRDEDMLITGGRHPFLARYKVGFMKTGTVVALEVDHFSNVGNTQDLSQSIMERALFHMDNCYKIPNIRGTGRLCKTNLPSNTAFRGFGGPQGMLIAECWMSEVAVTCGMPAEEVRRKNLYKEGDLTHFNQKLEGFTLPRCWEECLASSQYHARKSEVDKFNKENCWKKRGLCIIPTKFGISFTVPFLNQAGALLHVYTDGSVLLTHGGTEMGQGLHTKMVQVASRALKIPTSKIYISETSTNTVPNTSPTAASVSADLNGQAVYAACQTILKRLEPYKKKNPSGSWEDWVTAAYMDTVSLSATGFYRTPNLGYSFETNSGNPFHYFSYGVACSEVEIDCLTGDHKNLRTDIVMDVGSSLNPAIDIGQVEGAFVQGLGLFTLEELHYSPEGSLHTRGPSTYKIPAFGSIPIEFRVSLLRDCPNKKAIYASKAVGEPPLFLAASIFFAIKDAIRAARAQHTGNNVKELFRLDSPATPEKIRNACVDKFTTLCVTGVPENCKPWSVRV

Row | SMILES | IC50 [1] | other results
1 | COc1ccc(C(=O)/C=C/c2ccc(O)cc2)c(OC)c1 | 121 nM | 
2 | COc1ccc2c(c1)C(=O)C(=O)N2CCn1cc(COc2cc(=O)oc3ccccc23)nn1 |  | IC50 [2]: 6500 nM
3 | O=c1[nH]c(-c2ccc(OCC3CCCCC3)c(-n3cnnn3)c2)no1 | 121 nM | 
4 | COc1cc2ccc(C(=O)NCCCCc3ccc(O)c(O)c3)cc2cc1OC | 13100 nM | 
5 | OCc1nnn(Cc2cccc(Br)c2)c1CO | 710 nM | 
6 | Oc1ccc(/C=C/c2cc(O)cc3oc(-c4ccc(O)cc4)c(-c4cc(O)cc(O)c4)c23)cc1 | 12300 nM | 
7 | Cc1c(/N=C/c2ccc(C(=O)Nc3nc4ccc(S(C)(=O)=O)cc4s3)cc2)c(=O)n(-c2ccccc2)n1C | 2220 nM | 
8 | C=Cc1ccc(C[n+]2cn(Cc3ccc(SC)cc3)c3ccccc32)cc1 | 590 nM | 
9 | O=[N+]([O-])c1ccc(-c2cnc(-c3ccc(Br)cc3)s2)cc1 | 100 nM | 
10 | COc1ccc([C@@H]2C/C(=N\c3ccc([N+](=O)[O-])cc3Cl)c3c(O)cc(O[C@H]4O[C@@H](O[C@H]5O[C@@H](C)[C@H](O)[C@@H](O)[C@H]5O)[C@H](O)[C@@H](O)[C@@H]4O)cc3O2)cc1O |  | IC50 [3]: 263 nM
11 | C[C@@H]1O[C@@H](OC[C@H]2O[C@@H](Oc3c(-c4ccc(O)c(O)c4)oc4cc(O)cc(O)c4/c3=N\Nc3ccccc3)[C@H](O)[C@@H](O)[C@@H]2O)[C@H](O)[C@H](O)[C@H]1O | 4870 nM | 
12 | N#Cc1cc[n+](Cc2ccc(-c3ccc(C[n+]4ccc(C#N)c(C(=O)O)c4)cc3)cc2)cc1C(=O)O |  | IC50 [4]: 394 nM
13 | O=C1CCC(Nc2nc3cc(C(=O)Nc4cc(O)c(O)c(O)c4)ccc3n2Cc2ccc(O)cc2)C(=O)N1 (stereo unspecified) | 18400 nM | 
14 | CCn1c(O)c(C(c2ccc(Br)cc2)c2c(O)n(CC)c(=S)n(CC)c2=O)c(=O)n(CC)c1=S | 1790 nM | 
15 | Nc1ccc(O)c(/N=N/c2ncc(-n3cc4c(=O)ncnc-4[nH]3)[nH]2)c1 |  | IC50 [5]: 600 nM
16 | O=c1cc(O)cc(/C=C/c2ccc(O)c(O)c2)o1 [HISPIDIN] |  | IC50 [6]: 39700 nM
